# Values joined by “and” are separate entries in the source; they are usually repeats but may differ in a detail not shown here. Equal values may be shown once.
# B1: rKBP: Recombinant tissue kallikrein binding protein, reference drug given intravitreally (protein, UniProt P29622 21-427, looked up)
# Kallistatin: QLHVEHDGESCSNSSHQQILETGEGSPSLKIAPANADFAFRFYYLIASETPGKNIFFSPLSISAAYAMLSLGACSHSRSQILEGLGFNLTELSESDVHRGFQHLLHTLNLPGHGLETRVGSALFLSHNLKFLAKFLNDTMAVYEAKLFHTNFYDTVGTIQLINDHVKKETRGKIVDLVSELKKDVLMVLVNYIYFKALWEKPFISSRTTPKDFYVDENTTVRVPMMLQDQEHHWYLHDRYLPCSVLRMDYKGDATVFFILPNQGKMREIEEVLTPEMLMRWNNLLRKRNFYKKLELHLPKFSISGSYVLDQILPRLGFTDLFSKWADLSGITKQQKLEASKSFHKATLDVDEAGTEAAAATSFAIKFFSAQTNRHILRFNRPFLVVIFSTSTQSVLFLGKVVDPTKP
# Columns and labels:
# [1] = tested on: streptozotocin-diabetic Brown-Norway rats; experiment: Retinal vascular leakage (Evans Blue dye) after eye drops in streptozotocin-diabetic Brown-Norway rats; type: in vivo, rat
# Source text: Administration of streptozotocin to rodents produces a massive destruction of pancreatic β-cells, and thus, triggers marked elevation of glycemia and development of a diabetic state which, in part, mimics early stages of type 1 diabetes. In this regard, streptozotocin-treated rats develop an inflammatory retinopathy featured by rupture of the blood-retinal barrier, increase of inflammatory mediators, cytokines and growth factors (VEGF, basic fibroblast growth factor), microglial cell activation and leukostasis.
# Male Brown-Norway or Wistar rats were made diabetic by […] of 65 mg/kg intraperitoneal streptozotocin. Rats with a glycemia<350 mg/dl were discarded from the study. […] On day 15, retinal vascular leakage was determined by measurement of retinal content of Evans Blue dye.
# Recombinant tissue kallikrein binding protein (rKBP) was used as a reference drug and was given intravitreally 48 hours before vascular leakage measurement. Values are means ±standard error mean of 12 eyes/group (6 rats). *** means that P<0.001 in a Student's t-test.
# The route by which the phosphate salt of compound n° 49 reaches the retina following topical instillation was investigated to determine whether it is mainly by systemic circulation or by the trans- and/or peri-ocular pathway.
# [2] = tested on: mRNA of cytokines, vasoactive mediators and growth factors in retina; experiment: Expression of mRNA of cytokines, vasoactive mediators and growth factors in retina of diabetic Wistar rats; type: in vivo, rat; settings: 1% eye drops for 7 days, phosphate salt
# Source text: Expression of mRNA of B1R, B2R, i-NOS, e-NOS, COX-2, ICAM-1, VEGF-R2, VEGF-a, IL-1β and HIF-1α was increased in diabetic rat retina compared to control by 7.5-fold (P<0.05), 5.5, 15- (P<0.01), 6.5- , 8- (P<0.05), 8- , 5- (P<0.05), 12-, 6.5- (P<0.01) and 7-fold (P<0.05), respectively. Expression of TNF-α mRNA remained unchanged.
# [3] = tested on: leukocyte adhesion to the retinal vasculature; experiment: Leukocyte adhesion to the retinal vasculature of streptozotocin-diabetic Wistar rats; type: in vivo, rat; settings: phosphate salt, 1% eye drop twice-a-day for 7 days; P<0.05
# [4] = Ocular distribution study in albino and pigmented rabbits (14C-compound, single ocular administration); type: in vivo, rabbit
# Source text: Further, an ocular distribution study in albino and pigmented rabbits has been performed.
# [5] = tested on: mRNA of cytokines, vasoactive mediators and growth factors in retina; experiment: Expression of mRNA of cytokines, vasoactive mediators and growth factors in retina of diabetic Wistar rats; type: in vivo, rat; settings: 1% eye drops for 7 days, phosphate salt; remark: listed apart in the source
# [6] = tested on: STZ diabetic Brown-Norway rats; settings: intravitreal route, positive reference drug; cited from earlier work
# [7] = single ocular 30 μl of 2% (base equivalent) 14C formulation
Molecule,"reduction of retinal edema, maximum ([1]; 1% eye drops, two separate preliminary studies (data not shown))","reduction of retinal vascular permeability, treated eye ([1]; 3% phosphate salt in a single eye for 7 days) [%]","reduction of retinal oedema, maximum ([1]; phosphate salt, eye drop (10 μl) 0.1-3% twice daily for 7 days, dose-dependent) [%]",activity of phosphate salt form compared to fumarate salt ([1]; test not specified),mRNA expression of B1R in retina [2],mRNA expression of B2R in retina [2],mRNA expression of COX-2 in retina [2],mRNA expression of HIF-1α in retina [2],mRNA expression of ICAM-1 in retina [2],mRNA expression of VEGF-A in retina (first mention in list) [2],mRNA expression of e-NOS in retina [2],mRNA expression of i-NOS in retina [2],reduction of expression of VEGF-A mRNA in retina [2] [%],leukostasis (number of leukocytes in retinal vessels) [3],"Cmax in plasma ([4]; albino and pigmented rabbits (similar profiles), single ocular 30 μl of 2%) [ng/mL]","AUC 0-48 in aqueous, retina, choroids, whole blood and plasma, pigmented rabbit higher than albino [4, 7]","Cmax, pigmented rabbit lower than albino [4, 7]","t½ in vitreous, retina and choroids, pigmented rabbit higher than albino [4, 7]",mRNA expression of IL-1α in retina [5],reduction of retinal vascular leakage [6]
COc1cc(C)c(S(=O)(=O)N(C)CCOCC(=O)N(C)Cc2ccc(C3=NCCN3)cc2)c(C)c1 [compound n° 49],58% and 63%,37,55,equivalent activity,down-regulated to control level,down-regulated to control level,down-regulated to control level,down-regulated to control level,down-regulated to control level,down-regulated to control level,down-regulated to control level,down-regulated to control level,50,significantly blunted,88,at least 2 fold,at least 2 fold,at least 2 fold,down-regulated to control level,
B1,,,,,,,,,,,,,,,,,,,,approximately 50%

# Source: US20130253027A1, “DOSAGES OF ARYLSULFONAMIDE DERIVATIVES” (FOVEA PHARMACEUTICALS, priority 2010, published 2013)
